The AC50 is the concentration at which the activity in the assay is half-maximal. A word on the IC50: it is the midpoint of a concentration-inhibition curve.

Ten molecules from patent publication US20230167093A1, “COMPOUNDS AND METHODS FOR MODULATING SPLICING” (REMIX THERAPEUTICS INC., priority 2020, published 2023) can be followed below.

Type in all cases: cell-based
One assay deals with HTT AJ mRNA. Briefly: RT-qPCR splicing assay, HTT alternative junction (AJ) mRNA increase. Conditions: A673 or K562 cells, 24 hours compound treatment, top dose 10 uM; concentration having 50% response in AJ increase. As to the method:
(§1) Compounds described herein were used to modulate RNA transcript abundance in cells. The expression of a target mRNA was measured by detecting the formation of an exon-exon junction in the canonical transcript (CJ). A compound mediated exon-inclusion event was detected by observing an increase in formation of a new junction with an alternative exon (AJ). Real-time qPCR assays were used to detect these splicing switches and interrogate the potency of various compounds towards different target genes. A high-throughput real time quantitative PCR (RT-qPCR) assay was developed to measure these two isoforms of the mRNA (CJ and AJ) for an exemplary gene, HTT, together with a control housekeeping gene, GAPDH or GUSB or PPIA, used for normalization. Briefly, the A673 or K562 cell line was treated with various compounds described herein (e.g., compounds of Formula (I) or (II)). After treatment, the levels of the HTT mRNA targets were determined from each sample of cell lysate by cDNA synthesis followed by qPCR.
(§2) The A673 cell line was cultured in DMEM with 10% FBS. Cells were diluted with full growth media and plated in a 96-well plate (15,000 cells in 100 ul media per well). The plate was incubated at 37° C. with 5% CO2 for 24 hours to allow cells to adhere. An 11-point 3-fold serial dilution of the compounds was made in DMSO then diluted in media in an intermediate plate. Compounds were transferred from the intermediate plate to the cell plate with the top dose at a final concentration of 10 uM in the well. Final DMSO concentration was kept at or below 0.25%. The cell plate was returned to the incubator at 37° C. with 5% CO2 for an additional 24 hours.
(§3) The K562 cell line was cultured in IMDM with 10% FBS. For K562, cells were diluted with full growth media and plated in either a 96-well plate (50,000 cells in 50 uL media per well) or a 384-well plate (8,000-40,000 cells in 45 uL media per well). An 11-point 3-fold serial dilution of the compounds were made in DMSO then diluted in media in an intermediate plate. Compound was transferred from the intermediate plate to the cell plate with the top dose at a final concentration of 10 uM in the well. Final DMSO concentration was kept at or below 0.25%. Final volume was 100 uL for 96-well plate and 50 uL for 384-well plate. The cell plate was then placed in an incubator at 37° C. with 5% CO2 for 24 hours.
(§4) The cells were then gently washed with 50 uL-100 uL cold PBS before proceeding to addition of lysis buffer. 30 uL-50 uL of room temperature lysis buffer with DNAse I (and optionally RNAsin) was added to each well. Cells were shaken/mixed thoroughly at room temperature for 5-10 minutes for lysis to take place and then 3 uL-5 uL of room temperature stop solution was added and wells were shaken/mixed again. After 2-5 minutes, the cell lysate plate was transferred to ice for RT-qPCR reaction setup. The lysates could also be frozen at −80° C. for later use.
(§5) In some cases, a direct lysis buffer was used. An appropriate volume of 3× lysis buffer (10 mM Tris, 150 mM NaCl, 1.5%-2.5% Igepal and 0.1-1 U/uL RNAsin, pH 7.4) was directly added to either K562 or A673 cells in media and mixed by pipetting 3 times. The plates were then incubated at room temperature with shaking/rocking for 20-50 minutes to allow for lysis to take place. After this time, the cell lysate plate was transferred to ice to set up for the RT-qPCR reactions. The lysates could also be frozen at −80° C. for later use.
(§6) To set up 10 uL RT-qPCR reactions, cell lysates were transferred to 384-well qPCR plates containing the master mix according to the table below. The plates were sealed, gently vortexed, and spun down before the run. The volumes were adjusted accordingly in some instances where the reaction was carried in 20 uL. The table below summarizes the components of the RT-qPCR reactions:
(§7) The RT-qPCR reaction was performed using a QuantStudio (ThermoFisher) under the following fast cycling conditions. […]

In assay [1] the test system is HTT CJ mRNA. Kind of assay: RT-qPCR splicing assay, HTT canonical junction (CJ) mRNA decrease. Conditions: A673 or K562 cells, 24 hours compound treatment, top dose 10 uM; concentration having 50% response in CJ decrease. On the procedure:
as §1, §2, §3, §4, §5, §6, §7
In general terms: Real-time PCR tracks product formation cycle by cycle.

In assay [2] the test system is HTT CJ mRNA. Briefly: Gene panel canonical junction qPCR assay, HTT. Particulars: protocol as above, concentration having 50% response in CJ decrease, read-out: HTT IC50 (decrease in CJ mRNA levels). As to the method:
as §1, §2, §3, §4, §5, §6, §7

The next assay has as its system SMN2 CJ mRNA. Briefly: Gene panel canonical junction qPCR assay, SMN2. Particulars: protocol as above, concentration having 50% response in CJ decrease, read-out: SMN2 IC50 (decrease in CJ mRNA levels). On the procedure: as §1, with “After treatment, the levels of the HTT mRNA targets were determined from each sample of cell lysate by cDNA synthesis followed by qPCR.” left out
as §2, §3, §4, §5, §6
The RT-qPCR reaction was performed using a QuantStudio (ThermoFisher) under the following fast cycling conditions. All samples and standards were analyzed at least in duplicate. […]

A further assay has as its system Target C CJ mRNA. Kind of assay: Gene panel canonical junction qPCR assay, Target C. Conditions: protocol as above, concentration having 50% response in CJ decrease, read-out: Target C IC50 (decrease in CJ mRNA levels). On the procedure:
as §1, §2, §3, §4, §5, §6, §7

Regarding `CN1CCC(N(C)c2ccc3ncn(-c4cc(F)c5nn(C)cc5c4)c(=O)c3c2)CC1` [Compound 199, 3-(7-fluoro-2-methyl-2H-indazol-5-yl)-6-(methyl(1-methylpiperidin-4-yl)amino)quinazolin-4(3H)-one], the concentration at half-maximal activity (AC50) with HTT AJ mRNA and with HTT CJ mRNA [1] was above 10 µM in each case. The IC50 in the assay on HTT CJ mRNA [2], in the assay with SMN2 CJ mRNA and in the assay with Target C CJ mRNA was above 10 µM in each case.
Consider `Cc1cc(-c2ccc3ncn(C4CCNCC4)c(=O)c3c2)cc2cn(C)nc12` [Compound 169, 6-(2,7-dimethyl-2H-indazol-5-yl)-3-(piperidin-4-yl)quinazolin-4(3H)-one], for which the concentration at half-maximal activity (AC50) in the assay with HTT AJ mRNA and in the assay with HTT CJ mRNA [1] was above 10 µM each time. For the same molecule, the IC50 in the assay with HTT CJ mRNA [2], in the assay on SMN2 CJ mRNA and in the assay with Target C CJ mRNA was above 10 µM in each case.
As to `Cc1cc(-c2nc3cc(N4CCNCC4)ccc3c(=O)[nH]2)cc2cn(C)nc12` [Compound 213, 2-(2,7-dimethyl-2H-indazol-5-yl)-7-(piperazin-1-yl)quinazolin-4(3H)-one], the half-maximal activity concentration (AC50) in the assay with HTT AJ mRNA and in the assay with HTT CJ mRNA [1] was above 10 µM throughout. In addition, the concentration for half-maximal inhibition (IC50) with HTT CJ mRNA [2], with SMN2 CJ mRNA and in the assay with Target C CJ mRNA was above 10 µM in each case.
For the molecule `Cc1cc(-c2nc3cc(N4CCN(C)CC4)ccc3c(=O)[nH]2)cc2cn(C)nc12` [Compound 214, 2-(2,7-dimethyl-2H-indazol-5-yl)-7-(4-methylpiperazin-1-yl)quinazolin-4(3H)-one], the AC50 with HTT AJ mRNA and with HTT CJ mRNA [1] was above 10 µM each time. The concentration for half-maximal inhibition (IC50) in the assay with HTT CJ mRNA [2], in the assay with SMN2 CJ mRNA and with Target C CJ mRNA was above 10 µM in each case.
In the case of `Cc1cc(-c2ccc3c(=O)[nH]c(N4CCN(C)CC4)nc3c2)cc2cn(C)nc12` [Compound 212, 7-(2,7-dimethyl-2H-indazol-5-yl)-2-(4-methylpiperazin-1-yl)quinazolin-4(3H)-one], the half-maximal activity concentration (AC50) in the assay with HTT AJ mRNA and with HTT CJ mRNA [1] was 1 to 10 µM each time. For the same molecule, the half-inhibitory concentration (IC50) in the assay on HTT CJ mRNA [2], in the assay with SMN2 CJ mRNA and in the assay on Target C CJ mRNA was 1 to 10 µM throughout.
With `Cc1cn2nc(-n3cnc4ccc(N5CCN(C)CC5)cc4c3=O)cc(C)c2n1` [Compound 202, 3-(2,8-dimethylimidazo[1,2-b]pyridazin-6-yl)-6-(4-methylpiperazin-1-yl)quinazolin-4(3H)-one], the concentration at half-maximal activity (AC50) in the assay on HTT AJ mRNA and in the assay on HTT CJ mRNA [1] was 1 to 10 µM each time. For the same molecule, the IC50 in the assay on HTT CJ mRNA [2], with SMN2 CJ mRNA and in the assay on Target C CJ mRNA was 1 to 10 µM throughout.
Consider `CN1[C@H]2CC[C@@H]1C=C(c1ccc3ncn(-c4ccc5nn(C)cc5c4)c(=O)c3c1)C2` [Compound 168, 3-(2-methyl-2H-indazol-5-yl)-6-((1R,5S)-8-methyl-8-azabicyclo[3.2.1]oct-2-en-3-yl)quinazolin-4(3H)-one], for which the half-maximal activity concentration (AC50) in the assay with HTT AJ mRNA and in the assay on HTT CJ mRNA [1] was above 10 µM in each case. Moreover, the 50% inhibitory concentration (IC50) in the assay with HTT CJ mRNA [2], in the assay with SMN2 CJ mRNA and in the assay with Target C CJ mRNA was above 10 µM in each case.
As for `CN1CCN(c2ccc3ncn(-c4cc(F)c5nn(C)cc5c4)c(=O)c3c2)CC1` [Compound 194, 3-(7-fluoro-2-methyl-2H-indazol-5-yl)-6-(4-methylpiperazin-1-yl)quinazolin-4(3H)-one], the concentration at half-maximal activity (AC50) with HTT AJ mRNA and with HTT CJ mRNA [1] was 1 to 10 µM each time. Moreover, the IC50 in the assay on HTT CJ mRNA [2], with SMN2 CJ mRNA and in the assay on Target C CJ mRNA was 1 to 10 µM in each case.
`Cc1cn2cc(-n3cnc4ccc(N5CCNCC5)cc4c3=O)cc(F)c2n1` [Compound 195, 3-(8-fluoro-2-methylimidazo[1,2-a]pyridin-6-yl)-6-(piperazin-1-yl)quinazolin-4(3H)-one]: the AC50 in the assay on HTT AJ mRNA and in the assay on HTT CJ mRNA [1] was above 10 µM in each case. Also, the IC50 in the assay with HTT CJ mRNA [2], in the assay with SMN2 CJ mRNA and with Target C CJ mRNA was above 10 µM each time.
For the molecule `Cc1cc(-c2ccc3ncn(C4CCN(C)CC4)c(=O)c3c2)cc2cn(C)nc12` [Compound 170, 6-(2,7-dimethyl-2H-indazol-5-yl)-3-(1-methylpiperidin-4-yl)quinazolin-4(3H)-one], the AC50 with HTT AJ mRNA and in the assay on HTT CJ mRNA [1] was above 10 µM throughout. Also, the IC50 in the assay with HTT CJ mRNA [2], in the assay with SMN2 CJ mRNA and in the assay on Target C CJ mRNA was above 10 µM throughout.
